pIC50: −log10 of the molar value.
What was measured:
Test in all cases: Cell proliferation assay (CellTiter-Glo, 72 hours)
BaF3 KIF5B-RET = molecular target: T1, BaF3 KIF5B-RET (Homo sapiens, UniProt P07949); format: cell-based; settings: anti-cell proliferation, read-out: BaF3 KIF5B-RET IC50
T1 construct: fused on or other part: P33176 (Kinesin-1 heavy chain)
Source text: (§1) The KIF5B-RET gene was synthesized at GenScript and cloned into pCDH-CMV-MCS-EF1-Puro plasmid (System Biosciences, Inc). KIF5B-RET point mutation V804M was generated at GenScript by PCR and confirmed by sequencing. Ba/F3-KIF5B-RET wild type and mutant were generated by transducing Ba/F3 cells with lentivirus containing KIF5B-RET wide type or mutant. Stable cell lines were selected by puromycin treatment, followed by IL-3 withdrawal. Briefly, 5×10^6 Ba/F3 cells were transduced with lentivirus supernatant in the presence of 8 μg/mL protamine sulfate. The transduced cells were subsequently selected with 1 µg/mL puromycin in the presence of IL3-containing medium RPMI1640, plus 10% FBS. After 10-12 days of selection, the surviving cells were further selected for IL3 independent growth.
(§2) Two thousand cells per well were seeded in 384 well white plate for 24 hrs, and then treated with compounds for 72 hours (37° C., 5% CO2). Cell proliferation was measured using CellTiter-Glo luciferase-based ATP detection assay (Promega) following the manufactures's protocol. IC50 determinations were performed using GraphPad Prism software (GraphPad, Inc., San Diego, Calif.).

BaF3 KIF5B-RET_V804M = molecular target: T2, BaF3 KIF5B-RET_V804M (Homo sapiens, UniProt P07949, V804M, cells depend on it); format: cell-based; settings: anti-cell proliferation, read-out: BaF3 KIF5B-RET_V804M IC50
T2 construct: fused on or other part: P33176 (Kinesin-1 heavy chain)
T2 sequence (P07949 whole entry V804M, the tested form may be a part): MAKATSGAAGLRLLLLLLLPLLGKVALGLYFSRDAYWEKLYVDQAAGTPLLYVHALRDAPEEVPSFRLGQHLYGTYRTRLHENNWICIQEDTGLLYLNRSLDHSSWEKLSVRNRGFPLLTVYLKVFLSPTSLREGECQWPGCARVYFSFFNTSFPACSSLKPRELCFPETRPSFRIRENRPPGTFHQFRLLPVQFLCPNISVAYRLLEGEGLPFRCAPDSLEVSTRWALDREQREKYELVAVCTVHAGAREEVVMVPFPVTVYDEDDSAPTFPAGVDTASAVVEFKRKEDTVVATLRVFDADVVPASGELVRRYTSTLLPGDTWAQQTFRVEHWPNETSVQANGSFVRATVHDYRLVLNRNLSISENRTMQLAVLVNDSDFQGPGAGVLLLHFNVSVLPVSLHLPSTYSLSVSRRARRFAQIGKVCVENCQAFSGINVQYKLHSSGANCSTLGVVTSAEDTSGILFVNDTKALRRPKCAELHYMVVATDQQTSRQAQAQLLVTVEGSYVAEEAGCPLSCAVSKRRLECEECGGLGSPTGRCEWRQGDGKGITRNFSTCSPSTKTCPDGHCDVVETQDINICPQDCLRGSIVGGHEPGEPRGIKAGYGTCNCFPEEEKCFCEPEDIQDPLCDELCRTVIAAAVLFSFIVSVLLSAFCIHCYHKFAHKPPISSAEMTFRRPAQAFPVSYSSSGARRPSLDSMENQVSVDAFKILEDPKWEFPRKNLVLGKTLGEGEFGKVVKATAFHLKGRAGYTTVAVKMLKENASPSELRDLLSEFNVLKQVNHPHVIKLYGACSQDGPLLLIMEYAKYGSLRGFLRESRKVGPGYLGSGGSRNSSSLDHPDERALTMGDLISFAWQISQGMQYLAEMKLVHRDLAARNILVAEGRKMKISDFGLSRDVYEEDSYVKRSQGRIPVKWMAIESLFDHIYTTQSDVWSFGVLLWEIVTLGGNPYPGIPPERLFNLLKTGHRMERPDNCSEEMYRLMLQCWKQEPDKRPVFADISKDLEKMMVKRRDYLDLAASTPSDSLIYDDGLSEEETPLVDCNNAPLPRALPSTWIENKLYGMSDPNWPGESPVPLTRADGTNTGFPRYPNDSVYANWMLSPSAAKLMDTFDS
Source text: as §1, §2

KG-1 = format: cell-based, human; settings: Homo sapiens, KG-1, anti-cell proliferation
Method: (§3) Human medulla thyroid carcinoma cell line TT (containing RET […] mutation) and acute myelogenous cell line KG-1 were purchased from ATCC. Human colon cancer cell line KMI2 (containing TPM3-TRKA) was obtained from NCI.
as §2

KM12 cell (TPM3-TRKA) = format: cell-based, human; settings: Homo sapiens, KM12, anti-cell proliferation
Method: as §3, §2

BaF3 EML4-ALK = molecular target: T3, BaF3 EML4-ALK (Homo sapiens, UniProt Q9UM73); format: cell-based; settings: anti-cell proliferation
T3 construct: The EML4-ALK gene (variant 1) was synthesized at GenScript and cloned into pCDH-CMV-MCS-EF1-Puro plasmid (System Biosciences, Inc); fused on or other part: Q9HC35 (Echinoderm microtubule-associated protein-like 4)
T3 sequence (Q9UM73 whole entry, change not shown, the tested form may be a part): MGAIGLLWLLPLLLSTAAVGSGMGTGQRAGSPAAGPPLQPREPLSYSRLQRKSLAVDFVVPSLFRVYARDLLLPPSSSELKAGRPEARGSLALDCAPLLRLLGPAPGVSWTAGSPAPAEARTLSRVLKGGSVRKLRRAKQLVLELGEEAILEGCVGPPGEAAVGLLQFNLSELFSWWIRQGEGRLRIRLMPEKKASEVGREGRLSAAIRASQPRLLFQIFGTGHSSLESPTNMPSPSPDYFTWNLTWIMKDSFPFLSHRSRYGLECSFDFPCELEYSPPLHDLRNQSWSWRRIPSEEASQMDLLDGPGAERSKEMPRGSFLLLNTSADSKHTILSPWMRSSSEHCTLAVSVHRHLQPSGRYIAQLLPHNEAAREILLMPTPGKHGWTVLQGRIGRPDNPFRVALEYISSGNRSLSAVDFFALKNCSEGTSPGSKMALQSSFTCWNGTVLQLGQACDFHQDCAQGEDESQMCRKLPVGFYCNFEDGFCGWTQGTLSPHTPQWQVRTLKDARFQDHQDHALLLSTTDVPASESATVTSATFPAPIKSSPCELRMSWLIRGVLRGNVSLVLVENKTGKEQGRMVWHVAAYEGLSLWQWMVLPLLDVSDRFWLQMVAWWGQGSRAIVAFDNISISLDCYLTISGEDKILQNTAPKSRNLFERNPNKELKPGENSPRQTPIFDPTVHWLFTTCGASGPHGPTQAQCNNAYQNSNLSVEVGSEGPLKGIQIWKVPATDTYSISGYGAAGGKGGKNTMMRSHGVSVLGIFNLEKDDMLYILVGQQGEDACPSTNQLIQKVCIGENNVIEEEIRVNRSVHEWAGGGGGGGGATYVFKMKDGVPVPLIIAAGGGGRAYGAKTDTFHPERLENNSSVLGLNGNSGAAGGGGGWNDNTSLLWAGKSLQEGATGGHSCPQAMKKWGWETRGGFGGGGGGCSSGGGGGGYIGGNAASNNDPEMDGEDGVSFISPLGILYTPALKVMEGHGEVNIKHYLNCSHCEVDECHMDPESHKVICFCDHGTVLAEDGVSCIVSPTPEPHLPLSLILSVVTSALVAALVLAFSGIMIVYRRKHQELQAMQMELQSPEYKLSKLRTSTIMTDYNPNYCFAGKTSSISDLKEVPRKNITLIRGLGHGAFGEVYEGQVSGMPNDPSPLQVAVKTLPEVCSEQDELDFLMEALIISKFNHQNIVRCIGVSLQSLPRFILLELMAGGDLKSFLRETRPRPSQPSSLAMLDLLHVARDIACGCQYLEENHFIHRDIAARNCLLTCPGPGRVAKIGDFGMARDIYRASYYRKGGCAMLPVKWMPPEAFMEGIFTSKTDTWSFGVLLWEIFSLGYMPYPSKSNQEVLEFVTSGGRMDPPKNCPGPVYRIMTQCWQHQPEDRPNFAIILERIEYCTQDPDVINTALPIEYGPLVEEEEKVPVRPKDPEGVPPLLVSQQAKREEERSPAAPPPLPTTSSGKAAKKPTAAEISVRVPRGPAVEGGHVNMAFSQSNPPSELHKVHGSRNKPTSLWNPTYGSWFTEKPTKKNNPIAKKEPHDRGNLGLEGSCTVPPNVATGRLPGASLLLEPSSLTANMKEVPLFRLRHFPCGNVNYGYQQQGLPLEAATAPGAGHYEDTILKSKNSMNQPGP
Method: The EML4-ALK gene (variant 1) was synthesized at GenScript and cloned into pCDH-CMV-MCS-EF1-Puro plasmid (System Biosciences, Inc). Ba/F3-EML4-ALK wild type were generated by transducing Ba/F3 cells with lentivirus containing EML4-ALK wide type. Stable cell lines were selected by puromycin treatment, followed by IL-3 withdrawal. Briefly, 5×10^6 Ba/F3 cells were transduced with lentivirus supernatant in the presence of 8 μg/mL protamine sulfate. The transduced cells were subsequently selected with 1 μg/mL puromycin in the presence of IL3-containing medium RPMI1640, plus 10% FBS. After 10-12 days of selection, the surviving cells were further selected for IL3 independent growth.
as §2

BaF3 KIF5B-RET_G810R = molecular target: T4, BaF3 KIF5B-RET_G810R (Homo sapiens, UniProt P07949, G810R, cells depend on it); format: cell-based; settings: anti-cell proliferation, read-out: BaF3 KIF5B-RET_G810R IC50
T4 construct: fused on or other part: P33176 (Kinesin-1 heavy chain)
T4 sequence (P07949 whole entry G810R, the tested form may be a part): as the sequence (P07949 whole entry V804M, the tested form may be a part) above, with M804V, G810R counted along it
Source text: [The source words this procedure for another variant and reports this variant under the same test.] as §1, §2

T1 sequence (P07949 whole entry, change not shown, the tested form may be a part): as the sequence (P07949 whole entry V804M, the tested form may be a part) above, with M804V counted along it

C[C@H]1CNC(=O)c2cnn3cc4c(nc23)N(Cc2cc(F)cnc2O1)[C@@H]1CC[C@@H]1O4 [Compound 8, (2aR,10S,19aS)-6-fluoro-10-methyl-1,2,2a,11,12,19a-hexahydro-4H-16,18-(metheno)cyclobuta[5,6][1,4] oxazino[3,4-i]pyrazolo[4,3-f]pyrido[3,2-l][1,4,8,10]oxatriazacyclotridecin-13(10H)-one]
GI50 (BaF3 KIF5B-RET): 342 nM | GI50 (BaF3 KIF5B-RET_V804M): 1930 nM | pIC50 (KG-1): 6.72 | pIC50 (KM12 cell (TPM3-TRKA)): 9.52 | GI50 (BaF3 EML4-ALK): 4000 nM

C[C@H]1CNC(=O)c2cnn3cc4c(nc23)N(Cc2cc(F)cnc2O1)[C@H]1CC[C@H]1O4 [Compound 9, (2aS,10S,19aR)-6-fluoro-10-methyl-1,2,2a,11,12,19a-hexahydro-4H-16,18-(metheno)cyclobuta[5,6][1,4] oxazino[3,4-i]pyrazolo[4,3-f]pyrido[3,2-l][1,4,8,10]oxatriazacyclotridecin-13(10H)-one]
GI50 (BaF3 KIF5B-RET): 2360 nM | GI50 (BaF3 KIF5B-RET_V804M): > 10000 nM | pIC50 (KG-1): 6.00 | pIC50 (KM12 cell (TPM3-TRKA)): 8.48 | GI50 (BaF3 EML4-ALK): 8000 nM

C[C@@H]1COc2ncc(F)cc2CN2c3nc4c(cnn4cc3O[C@H]3CC[C@H]32)C(=O)N1 [Compound 10, (2aR,11R,19aS)-6-fluoro-11-methyl-1,2,2a,11,12,19a-hexahydro-4H-16,18-(metheno)cyclobuta[5,6][1,4] oxazino[3,4-i]pyrazolo[4,3-f]pyrido[3,2-l][1,4,8,10]oxatriazacyclotridecin-13(10H)-one]
GI50 (BaF3 KIF5B-RET): 274 nM | GI50 (BaF3 KIF5B-RET_V804M): 1210 nM | pIC50 (KG-1): 7.11 | pIC50 (KM12 cell (TPM3-TRKA)): 9.70 | GI50 (BaF3 EML4-ALK): 4000 nM

C[C@@H]1COc2ncc(F)cc2CN2c3nc4c(cnn4cc3O[C@@H]3CC[C@@H]32)C(=O)N1 [Compound 11, (2aS,11R,19aR)-6-fluoro-11-methyl-1,2,2a,11,12,19a-hexahydro-4H-16,18-(metheno)cyclobuta[5,6][1,4] oxazino[3,4-i]pyrazolo[4,3-f]pyrido[3,2-l][1,4,8,10]oxatriazacyclotridecin-13(10H)-one]
GI50 (BaF3 KIF5B-RET): 839 nM | GI50 (BaF3 KIF5B-RET_V804M): 3000 nM | pIC50 (KG-1): 6.51 | pIC50 (KM12 cell (TPM3-TRKA)): 9.40

O=C1N[C@H](C2CC2)COc2ncc(F)cc2CN2c3nc4c1cnn4cc3O[C@H]1CCC[C@H]12 [Compound 14, (3aR,12R,20aS)-12-cyclopropyl-7-fluoro-2,3,3a,12,13,20a-hexahydro-1H,5H-17-19-(metheno)cyclopenta[5,6][1,4] oxazino[4,3-i]pyrazolo[4,3-f]pyrido[3,2-l][1,4,8,10]oxatriazacyclotridecin-14(11H)-one]
GI50 (BaF3 KIF5B-RET): 120 nM | GI50 (BaF3 KIF5B-RET_G810R): 530 nM | pIC50 (KG-1): 6.56 | pIC50 (KM12 cell (TPM3-TRKA)): 7.58 | GI50 (BaF3 EML4-ALK): 908 nM

C[C@H]1CNC(=O)c2cnn3cc4c(nc23)N(Cc2cc(F)cnc2O1)[C@H]1COC[C@H]1O4 [Compound 31, (3aS,11S,20aS)-7-fluoro-11-methyl-1,3,3a,12,13,20a-hexahydro-5H-17,19-(metheno)furo[3′,4′:5,6][1,4]oxazino[3,4-i]pyrazolo[4,3-f]pyrido[3,2-l][1,4,8,10]oxatriazacyclotridecin-14(11H)-one]
GI50 (BaF3 KIF5B-RET): 4000 nM | GI50 (BaF3 KIF5B-RET_V804M): > 10000 nM | GI50 (BaF3 KIF5B-RET_G810R): > 10000 nM | pIC50 (KG-1): 5.00 | pIC50 (KM12 cell (TPM3-TRKA)): 6.44

CC1(C)CCOc2ncc(F)cc2CN2c3nc4c(cnn4cc3O[C@H]3CCC[C@H]32)C(=O)N1 [Compound 34, (3aR,21aS)-7-fluoro-13,13-dimethyl-2,3,3a,11,12,13,14,21a-octahydro-1H,5H,15H-18,20-(metheno)cyclopenta[5,6][1,4]oxazino[4,3-e]pyrazolo[3,4-h]pyrido[2,3-b][1,5,7,11]oxatriazacyclotetradecin-15-one]
GI50 (BaF3 KIF5B-RET): 62.2 nM | GI50 (BaF3 KIF5B-RET_G810R): 651 nM | pIC50 (KG-1): 6.39 | pIC50 (KM12 cell (TPM3-TRKA)): 7.30 | GI50 (BaF3 EML4-ALK): 1000 nM

C[C@@H]1CCNC(=O)c2cnn3cc4c(nc23)N(Cc2cc(F)cnc2O1)[C@@H]1CCC[C@@H]1O4 [Compound 35, (3aR,11R,21aS)-7-fluoro-11-methyl-2,3,3a,11,12,13,14,21a-octahydro-1H,5H,15H-18,20-(metheno)cyclopenta[5,6][1,4]oxazino[4,3-e]pyrazolo[3,4-h]pyrido[2,3-b][1,5,7,11]oxatriazacyclotetradecin-15-one]
GI50 (BaF3 KIF5B-RET): 8.8 nM | pIC50 (KG-1): 7.25 | pIC50 (KM12 cell (TPM3-TRKA)): > 9.70 | GI50 (BaF3 EML4-ALK): 1100 nM

CC(=O)N1C[C@@H]2Oc3cn4ncc5c4nc3N(Cc3cc(F)cnc3O[C@@H](C)CNC5=O)[C@@H]2C1 [Compound 36, (3aR,11S,20aS)-2-acetyl-7-fluoro-11-methyl-2,3,3a,12,13,20a-hexahydro-1H, 5H-17,19-(metheno)pyrazolo[4,3-f]pyrido [3,2-l]pyrrolo[3′,4′:5,6][1,4]oxazino[3,4-i][1,4,8,10]oxatriazacyclotridecin-14(11H)-one]
GI50 (BaF3 KIF5B-RET): 8000 nM | pIC50 (KG-1): 5.00 | pIC50 (KM12 cell (TPM3-TRKA)): 6.00 | GI50 (BaF3 EML4-ALK): > 10000 nM

CC(=O)N1C[C@H]2Oc3cn4ncc5c4nc3N(Cc3cc(F)cnc3O[C@@H](C)CNC5=O)[C@H]2C1 [Compound 37, (3aS,11S,20aR)-2-acetyl-7-fluoro-11-methyl-2,3,3a,12,13,20a-hexahydro-1H, 5H-17,19-(metheno)pyrazolo[4,3-f]pyrido [3,2-l]pyrrolo[3′,4′:5,6][1,4]oxazino[3,4-i][1,4,8,10]oxatriazacyclotridecin-14(11H)-one]
GI50 (BaF3 KIF5B-RET): 8000 nM | pIC50 (KG-1): 5.52 | pIC50 (KM12 cell (TPM3-TRKA)): 5.92 | GI50 (BaF3 EML4-ALK): > 10000 nM

O=C1N[C@H]2CC[C@H](C2)Oc2ncc(F)cc2CN2c3nc4c1cnn4cc3O[C@H]1CCC[C@H]12 [Compound 41, (3aR,11R,14S,22aS)-7-fluoro-2,3,3a,12,13,14,15,22a-octahydro-1H, 5H-11,14-metheno-19,21-(metheno)cyclopenta[5,6][1,4] oxazino[4,3-e]pyrazolo[3,4-h]pyrido[2,3-b][1,5,7,11]oxatriazacyclopentadecin-16(11H)-one]
GI50 (BaF3 KIF5B-RET): 5.1 nM | GI50 (BaF3 KIF5B-RET_G810R): 156 nM | pIC50 (KG-1): 6.41 | pIC50 (KM12 cell (TPM3-TRKA)): 6.37 | GI50 (BaF3 EML4-ALK): 1450 nM

O=C1N[C@@H]2CC[C@@H](C2)Oc2ncc(F)cc2CN2c3nc4c1cnn4cc3O[C@H]1CCC[C@H]12 [Compound 42, (3aR,11S,14R,22aS)-7-fluoro-2,3,3a,12,13,14,15,22a-octahydro-1H, 5H-11,14-metheno-19,21-(metheno)cyclopenta[5,6][1,4] oxazino[4,3-e]pyrazolo[3,4-h]pyrido[2,3-b][1,5,7,11]oxatriazacyclopentadecin-16(11H)-one]
GI50 (BaF3 KIF5B-RET): 0.5 nM | GI50 (BaF3 KIF5B-RET_G810R): 17.4 nM | pIC50 (KG-1): 7.39 | pIC50 (KM12 cell (TPM3-TRKA)): 8.01 | GI50 (BaF3 EML4-ALK): 338 nM

O=C1NC[C@@H](O)COc2ncc(F)cc2CN2c3nc4c1cnn4cc3O[C@H]1CCC[C@H]12 [Compound 43, (3aR,12R,21aS)-7-fluoro-12-hydroxy-2,3,3a,11,12,13,14,21a-octahydro-1H, 5H,15H-18,20-(metheno)cyclopenta[5,6][1,4] oxazino[4,3-e]pyrazolo[3,4-h]pyrido[2,3-b][1,5,7,11]oxatriazacyclotetradecin-15-one]
GI50 (BaF3 KIF5B-RET): 68.9 nM | GI50 (BaF3 KIF5B-RET_G810R): 396 nM | pIC50 (KG-1): 6.44 | pIC50 (KM12 cell (TPM3-TRKA)): 6.96 | GI50 (BaF3 EML4-ALK): 2990 nM

From US10745416B2, “Macrocyclic compounds for treating disease” (Turning Point Therapeutics, Inc., priority 2017, dated 2020)
